Data on two molecules can be found in publication PMC10932305, “RAR Inhibitors Display Photo-Protective and Anti-Inflammatory Effects in A2E Stimulated RPE Cells In Vitro through Non-Specific Modulation of PPAR or RXR Transactivation” (International Journal of Molecular Sciences, 2024).

The assay addresses T1, RAR-α (retinoic acid receptor α) (Homo sapiens, UniProt P10276).
T1 construct: gene RARA; human recombinant RARα-LBD expressed in insect cells
T1 sequence (P10276 183-417 limits assumed): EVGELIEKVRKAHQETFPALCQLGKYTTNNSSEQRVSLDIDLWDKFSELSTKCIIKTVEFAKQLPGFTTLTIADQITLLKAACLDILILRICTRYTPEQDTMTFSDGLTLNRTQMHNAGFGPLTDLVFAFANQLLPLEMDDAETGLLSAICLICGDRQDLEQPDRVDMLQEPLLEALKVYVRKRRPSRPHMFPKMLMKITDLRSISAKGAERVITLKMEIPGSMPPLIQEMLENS
In words: radioligand competition binding (Eurofins Cerep).

SMILES strings stand for the structures.

Molecule `CC(=C/C=C/C(C)=C/C=C/C=C(C)/C=C/C=C(C)/C=C/C(=O)O)/C=C/C(=O)O` [NBX, norbixin] came in with a Kd of 47 µM. As for `CC1=C(/C=C/C(C)=C/C=C/C(C)=C/c2cc(/C=C/C=C(C)/C=C/C3=C(C)CCCC3(C)C)cc[n+]2CCO)C(C)(C)CCC1` [A2E], the affinity, expressed as Kd, was 1.4 µM.
